From patent publication US11685732B2, “MYST family histone acetyltransferase inhibitors” (Epizyme, Inc., priority 2017, dated 2023)

How the values were obtained:
[1] = target: KAT-8 (Homo sapiens (Human), UniProt Q9H7Z6); test: KAT-8 biochemical inhibition assay (SAMDI mass spectrometry)
Outline: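 Acetylation of 1 μM peptide substrate with 5 μM acetyl-CoA by 12.5 nM enzyme, compound pre-incubated, 2% DMSO, Tris pH 8.0 buffer with DTT, 25 °C for 90 min. Quench with 0.5% formic acid; product read by SAMDI mass spectrometry to give IC50.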

[2] = target: KAT-7 (Homo sapiens (Human), UniProt O95251); test: KAT-7 biochemical inhibition assay (SAMDI mass spectrometry)
KAT-7, sequence (O95251 other isoform, or with tags, fused parts or gaps): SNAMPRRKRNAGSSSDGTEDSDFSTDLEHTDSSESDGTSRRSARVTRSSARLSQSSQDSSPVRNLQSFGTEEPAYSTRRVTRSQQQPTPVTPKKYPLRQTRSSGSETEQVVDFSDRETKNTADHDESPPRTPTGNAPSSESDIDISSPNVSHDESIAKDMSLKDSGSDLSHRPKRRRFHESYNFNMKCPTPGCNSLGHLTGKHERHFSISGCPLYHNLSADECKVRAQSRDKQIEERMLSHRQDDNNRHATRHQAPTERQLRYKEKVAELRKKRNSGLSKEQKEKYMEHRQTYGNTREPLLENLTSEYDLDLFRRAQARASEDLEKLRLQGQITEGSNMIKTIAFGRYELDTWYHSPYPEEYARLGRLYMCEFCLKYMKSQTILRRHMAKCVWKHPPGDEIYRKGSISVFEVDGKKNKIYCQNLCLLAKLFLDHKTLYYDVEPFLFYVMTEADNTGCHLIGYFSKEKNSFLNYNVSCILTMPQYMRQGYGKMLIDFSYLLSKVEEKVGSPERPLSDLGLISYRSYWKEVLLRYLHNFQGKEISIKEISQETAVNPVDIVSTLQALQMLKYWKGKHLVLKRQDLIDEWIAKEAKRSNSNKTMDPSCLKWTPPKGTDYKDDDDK
Outline: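 Read-out was SAMDI time-of-flight MS of formic acid-quenched reactions (0.5% final). Compound dilutions (2% DMSO final) were pre-incubated with 6 nM KAT-7 in 50 mM Tris pH 8.0 with 1 mM DTT, then given 1 μM peptide substrate and 2 μM acetyl-CoA for 120 min at 25 °C. IC50 values were derived.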

[3] = target: KAT-5 (Homo sapiens (Human), UniProt Q92993); test: KAT-5 biochemical inhibition assay (SAMDI mass spectrometry)
KAT-5, sequence (Q92993 other isoform, or with tags, fused parts or gaps): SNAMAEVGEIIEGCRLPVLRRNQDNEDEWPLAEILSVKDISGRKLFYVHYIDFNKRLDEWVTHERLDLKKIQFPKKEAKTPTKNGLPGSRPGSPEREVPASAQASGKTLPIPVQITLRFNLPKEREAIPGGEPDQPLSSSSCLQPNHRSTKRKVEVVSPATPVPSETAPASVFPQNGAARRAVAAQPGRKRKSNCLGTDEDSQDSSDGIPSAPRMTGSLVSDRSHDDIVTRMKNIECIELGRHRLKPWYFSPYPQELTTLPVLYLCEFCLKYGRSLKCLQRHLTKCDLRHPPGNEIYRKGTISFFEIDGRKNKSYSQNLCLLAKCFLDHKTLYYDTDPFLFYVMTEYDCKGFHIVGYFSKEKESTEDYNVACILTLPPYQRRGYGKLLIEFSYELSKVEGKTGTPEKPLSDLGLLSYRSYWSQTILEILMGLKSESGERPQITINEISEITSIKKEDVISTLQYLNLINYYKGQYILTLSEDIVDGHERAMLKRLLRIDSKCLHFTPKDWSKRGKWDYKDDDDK
Outline: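 Acetylation of 1 μM peptide by 9 nM enzyme with 0.5 μM acetyl-CoA (final) was run 90 min at 25° C in Tris pH 8.0 buffer with DTT, after compound preincubation at 2% DMSO. Formic acid stopped the reaction, and product was quantified by SAMDI mass spectrometry to derive IC50.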

[4] = target: KAT-6A (Homo sapiens (Human), UniProt Q92794); test: KAT-6A biochemical inhibition assay (SAMDI mass spectrometry)
KAT-6A, sequence (Q92794 other isoform, or with tags, fused parts or gaps): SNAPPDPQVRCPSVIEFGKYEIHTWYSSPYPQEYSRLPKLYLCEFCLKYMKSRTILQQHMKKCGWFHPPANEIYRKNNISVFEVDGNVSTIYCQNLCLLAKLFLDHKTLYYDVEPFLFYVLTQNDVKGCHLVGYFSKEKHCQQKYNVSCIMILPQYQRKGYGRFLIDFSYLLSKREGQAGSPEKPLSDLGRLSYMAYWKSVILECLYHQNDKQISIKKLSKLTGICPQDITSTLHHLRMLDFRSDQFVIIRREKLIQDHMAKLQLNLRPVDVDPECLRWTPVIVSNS
Outline: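 IC50 values came from SAMDI time-of-flight mass spectrometry after formic acid quench (0.5% final). Acetylation ran 90 min at 25 °C with 1 μM acetyl coenzyme A and 1 μM peptide substrate, following compound pre-incubation with 12.5 nM KAT-6A in Tris buffer pH 8.0 containing DTT, 2% DMSO final.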

KAT-8, sequence (Q9H7Z6 other isoform, or with tags, fused parts or gaps): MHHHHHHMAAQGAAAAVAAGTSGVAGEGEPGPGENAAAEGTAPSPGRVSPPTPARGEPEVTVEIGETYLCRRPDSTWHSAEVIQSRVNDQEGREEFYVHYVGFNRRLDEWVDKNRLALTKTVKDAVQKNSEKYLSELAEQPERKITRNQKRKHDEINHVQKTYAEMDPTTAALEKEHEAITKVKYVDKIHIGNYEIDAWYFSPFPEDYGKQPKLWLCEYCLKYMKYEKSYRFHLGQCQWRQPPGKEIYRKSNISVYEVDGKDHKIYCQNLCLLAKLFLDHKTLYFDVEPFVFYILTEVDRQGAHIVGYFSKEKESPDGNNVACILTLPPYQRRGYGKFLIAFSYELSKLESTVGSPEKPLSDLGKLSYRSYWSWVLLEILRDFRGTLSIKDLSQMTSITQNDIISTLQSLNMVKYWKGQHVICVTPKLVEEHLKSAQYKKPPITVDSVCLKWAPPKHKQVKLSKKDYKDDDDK

SMILES	IC50 [1] [µM]	IC50 [2] [µM]	IC50 [3] [µM]	IC50 [4] [µM]
Cn1cnc(-c2cc(Cl)c(F)c(C(=O)NNS(=O)(=O)C[C@H]3CCC[C@H](O)C3)c2)c1 [Compound I-306]	10 to 50	< 10	< 10	< 10
CC1CCNCC1CS(=O)(=O)NNC(=O)c1cc(-c2cn(C)cn2)cc(Cl)c1F (centres unmarked) [Compound I-307]	10 to 50	10 to 50	10 to 50	10 to 50
Cn1cnc(-c2cc(Cl)c(F)c(C(=O)NNS(=O)(=O)CC3CC4CCC3C4)c2)c1 (centres unmarked) [Compound I-308]	< 10	< 10	< 10	< 10
Cn1cnc(-c2cc(Cl)c(F)c(C(=O)NNS(=O)(=O)c3ccccc3Cl)c2)c1 [Compound I-309]	10 to 50	< 10	< 10	< 10
CN1CCN([C@H]2CC[C@@H](CS(=O)(=O)NNC(=O)c3cc(-c4cn(C)cn4)cc(Cl)c3F)CC2)C1=O [Compound I-310]	10 to 50	< 10	< 10	< 10
CNC(=O)Cn1nc(-c2cc(Cl)c(F)c(C(=O)NNS(=O)(=O)CC3CCCCC3)c2)cc1C [Compound I-311]	10 to 50	< 10	< 10	10 to 50
CN1CCN([C@H]2C[C@H](CS(=O)(=O)NNC(=O)c3cc(-c4cn(C)cn4)cc(Cl)c3F)C2)C1=O [Compound I-312]	10 to 50	< 10	< 10	< 10
CC1CCC(CS(=O)(=O)NNC(=O)c2cc(-c3cn(C)cn3)cc(Cl)c2F)CC1 (centres unmarked) [Compound I-313]	10 to 50	< 10	< 10	< 10
CN(C)C(=O)CS(=O)(=O)NNC(=O)c1cc(-c2cn(C)cn2)cc(Cl)c1F [Compound I-314]	10 to 50	< 10	10 to 50	10 to 50
Cn1cnc(-c2cc(Cl)c(F)c(C(=O)NNS(=O)(=O)c3ccc(F)cc3)c2)c1 [Compound I-316]	10 to 50	< 10	< 10	< 10
CN(C(=O)C1CCC1)C1CCC(CS(=O)(=O)NNC(=O)c2cc(-c3cn(C)cn3)cc(Cl)c2F)CC1 (centres unmarked) [Compound I-317]	10 to 50	< 10	< 10	< 10
CN1CCN([C@H]2CC[C@H](CS(=O)(=O)NNC(=O)c3cc(-c4cn(C)cn4)cc(Cl)c3F)CC2)C1=O [Compound I-319]	10 to 50	< 10	< 10	< 10
Cn1cnc(-c2cc(Cl)c(F)c(C(=O)NNS(=O)(=O)c3cccc(F)c3)c2)c1 [Compound I-320]	10 to 50	< 10	< 10	< 10
COc1ccccc1S(=O)(=O)NNC(=O)c1cc(-c2cn(C)cn2)cc(Cl)c1F [Compound I-321]	10 to 50	< 10	< 10	< 10
COc1cccc(S(=O)(=O)NNC(=O)c2cc(-c3cn(C)cn3)cc(Cl)c2F)c1 [Compound I-322]	10 to 50	< 10	< 10	< 10
Cn1cnc(-c2cc(Cl)c(F)c(C(=O)NNS(=O)(=O)c3ccc(Cl)cc3)c2)c1 [Compound I-323]	10 to 50	< 10	< 10	< 10
Cn1cnc(-c2cc(Cl)c(F)c(C(=O)NNS(=O)(=O)c3cccc(Cl)c3)c2)c1 [Compound I-324]	10 to 50	< 10	< 10	< 10
CN1CCN([C@H]2C[C@@H](CS(=O)(=O)NNC(=O)c3cc(-c4cn(C)cn4)cc(Cl)c3F)C2)C1=O [Compound I-325]	10 to 50	< 10	< 10	< 10
CCC(=O)N(C)C1CCC(CS(=O)(=O)NNC(=O)c2cc(-c3cn(C)cn3)cc(Cl)c2F)CC1 (centres unmarked) [Compound I-326]	10 to 50	< 10	< 10	< 10
COc1ccc(CNC(=O)NC2CCC(CS(=O)(=O)NNC(=O)c3cc(-c4cn(C)cn4)cc(Cl)c3F)C2)cc1 (centres unmarked) [Compound I-327]	10 to 50	< 10	< 10	< 10
Cn1cnc(-c2cc(Cl)c(F)c(C(=O)NNS(=O)(=O)CC(=O)N3CCCC3)c2)c1 [Compound I-328]	10 to 50	< 10	10 to 50	10 to 50

SMILES	IC50 [1] [µM]	IC50 [2] [µM]	IC50 [3] [µM]	IC50 [4] [µM]
CO[C@H]1CC[C@H](CS(=O)(=O)NNC(=O)c2cc(-c3cn(C)cn3)cc(Cl)c2F)CC1 [Compound I-329]	10 to 50	< 10	< 10	< 10
Cn1cnc(-c2cc(Cl)c(F)c(C(=O)NNS(=O)(=O)c3ccccn3)c2)c1 [Compound I-330]	10 to 50	< 10	< 10	< 10
Cn1cnc(-c2cc(Cl)c(F)c(C(=O)NNS(=O)(=O)C[C@H]3CC[C@@H](N(C)C(=O)OC(C)(C)C)CC3)c2)c1 [Compound I-331]	10 to 50	< 10	< 10	10 to 50
Cn1cnc(-c2cc(Cl)c(F)c(C(=O)NNS(=O)(=O)C[C@H]3CC[C@H](N(C)C(=O)OC(C)(C)C)CC3)c2)c1 [Compound I-332]	10 to 50	< 10	< 10	< 10
Cn1cnc(-c2cc(Cl)c(F)c(C(=O)NNS(=O)(=O)C[C@@H]3CCC[C@@H](NC(=O)OC(C)(C)C)C3)c2)c1 [Compound I-333]	10 to 50	< 10	< 10	< 10
Cn1cnc(-c2cc(Cl)c(F)c(C(=O)NNS(=O)(=O)CC34CCC(CC3)CC4)c2)c1 [Compound I-334]	10 to 50	< 10	< 10	< 10
CC1CCCCC1CS(=O)(=O)NNC(=O)c1cc(-c2cn(C)cn2)cc(Cl)c1F (centres unmarked) [Compound I-335]	10 to 50	< 10	< 10	< 10
CN(C)C(=O)NC1CCC(CS(=O)(=O)NNC(=O)c2cc(-c3cn(C)cn3)cc(Cl)c2F)C1 (centres unmarked) [Compound I-336]	10 to 50	< 10	< 10	< 10
CN[C@H]1CC[C@H](CS(=O)(=O)NNC(=O)c2cc(-c3cn(C)cn3)cc(Cl)c2F)CC1 [Compound I-337]	10 to 50	< 10	10 to 50	10 to 50
CCNC(=O)N(C)[C@H]1CC[C@H](CS(=O)(=O)NNC(=O)c2cc(-c3cn(C)cn3)cc(Cl)c2F)CC1 [Compound I-338]	10 to 50	< 10	< 10	< 10
Cn1cnc(-c2cc(Cl)c(F)c(C(=O)NNS(=O)(=O)CC3CCC(N)C3)c2)c1 (centres unmarked) [Compound I-339]	10 to 50	< 10	10 to 50	10 to 50
Cn1cnc(-c2cc(Cl)c(F)c(C(=O)NNS(=O)(=O)CC3CCC(NC(N)=O)C3)c2)c1 (centres unmarked) [Compound I-340]	10 to 50	< 10	< 10	< 10
Cn1cnc(-c2cc(Cl)c(F)c(C(=O)NNS(=O)(=O)CC3CCC(NC(=O)N4CCC4)C3)c2)c1 (centres unmarked) [Compound I-341]	10 to 50	< 10	< 10	< 10
Cn1cnc(-c2cc(Cl)c(F)c(C(=O)NNS(=O)(=O)CC3CCCC(F)(F)C3)c2)c1 (centres unmarked) [Compound I-342]	10 to 50	< 10	< 10	< 10
CN(C(=O)OC(C)(C)C)c1cccc(S(=O)(=O)NNC(=O)c2cc(-c3cn(C)cn3)cc(Cl)c2F)c1 [Compound I-343]	10 to 50	< 10	< 10	< 10
Cn1cnc(-c2cc(Cl)c(F)c(C(=O)NNS(=O)(=O)CC3CCC(NC(=O)N4CCCCC4)C3)c2)c1 (centres unmarked) [Compound I-345]	10 to 50	< 10	< 10	< 10
Cn1cnc(-c2cc(Cl)c(F)c(C(=O)NNS(=O)(=O)CC3CCC(NC(=O)N4CCCC4)C3)c2)c1 (centres unmarked) [Compound I-346]	10 to 50	< 10	< 10	< 10
CCOC1CCC(CS(=O)(=O)NNC(=O)c2cc(-c3cn(C)cn3)cc(Cl)c2F)CC1 (centres unmarked) [Compound I-347]	10 to 50	< 10	< 10	< 10
CCNC(=O)N[C@H]1CCC[C@H](CS(=O)(=O)NNC(=O)c2cc(-c3cn(C)cn3)cc(Cl)c2F)C1 [Compound I-348]	10 to 50	< 10	< 10	< 10
Cn1cnc(-c2cc(Cl)c(F)c(C(=O)NNS(=O)(=O)C[C@H]3CCC[C@H](N)C3)c2)c1 [Compound I-349]	10 to 50	< 10	10 to 50	10 to 50
